Measurements taken from US20230079714A1, “1-AMINO-1-CYCLOPROPANECARBOXYLIC ACID FOR THINNING OF FRUITS” (priority 2021, published 2023).

Assays:
Assay type in all cases: in vivo
nectarine trees = test: Thinning trials Greece, Italy and Spain 2020, fruit set, nectarine sites; conditions: pink bud stage
Description: Thinning trials were conducted Greece, Italy and Spain in 2020. Specifically, 1-amino-1-cyclopropanecarboxylic acid was prepared at 200, 300, 400, 500, 800 and 1,000 ppm ACC solutions. These solutions were applied as a foliar spray to peach trees (i.e. […]

[1] = tested on: peach and nectarine trees; test: Thinning trials Greece, Italy and Spain 2020, fruit set, Italy site and average of all sites; conditions: pink bud stage; for % Fruit Set (Avg): average of sites; for reduced fruit set on average over control: vs untreated control
Description: (§1) Thinning trials were conducted Greece, Italy and Spain in 2020. Specifically, 1-amino-1-cyclopropanecarboxylic acid was prepared at 200, 300, 400, 500, 800 and 1,000 ppm ACC solutions. These solutions were applied as a foliar spray to peach trees (i.e. Spain North, Spain South #1 and Greece #2) and nectarine trees (i.e. Spain South #1 and Greece #1) at pink bud stage. […] Thinning activity is expressed as fruit set (the number of large fruit per 100 flowers).

GlenGlo Peach trees [2] = test: Peach tree thinning trial, foliage quality rating; conditions: for Foliage Rating: 1 is the best and 3 is the worst
Description: (§2) Thinning trials were conducted in Coloma, Mich. in May 2018. Specifically, 1-amino-1-cyclopropanecarboxylic acid was prepared at 300 and 600 ppm ACC solutions with 0.05% 2-butoxyethanol, poloxalene, monopropylene glycol as a surfactant. These solutions were applied as a foliar spray to GlenGlo Peach trees at pink bud stage, full bloom and after petal fall. Three one year-old shoots were flagged for each treatment on eight replicate trees. Fruit and defoliation were evaluated four weeks after bloom applications and two weeks after the post-petal fall application. […] Thinning activity is expressed as fruit set (the number of large fruit per 100 flowers).

[3] = tested on: plum trees (Candy Stripe and Black Majesty); test: Plum tree thinning trial, fruit set (Chile, 2020); conditions: for % Fruit Set 'Black Majesty': Black Majesty plum; for % Fruit set 'Candy Stripe': Candy Stripe plum; for % Fruit Set (Avg): average of two varieties; for reduced fruit set on average over control: white bud stage, vs untreated control
Description: Thinning trials were conducted Chile in 2020. Specifically, 1-amino-1-cyclopropanecarboxylic acid was prepared at 300 and 450 ppm ACC solutions. These solutions were applied as a foliar spray to two separate varieties of plum trees (i.e. Candy Stripe and Black Majesty) at the white bud stage, the full bloom stage or the petal fall stage. […] Thinning activity is expressed as fruit set (the number of large fruit per 100 flowers).

peach trees = test: Thinning trials Greece, Italy and Spain 2020, fruit set, peach sites; conditions: pink bud stage
Description: as §1

GlenGlo Peach trees [4] = test: Peach tree thinning trial, fruit set (Coloma, Mich., 2018); conditions: for reduced fruit set over control: pink bud stage, vs surfactant only control
Description: as §2

NC1(C(=O)O)CC1 [ACC, 1-amino-1-cyclopropanecarboxylic acid]
% Fruit Set (Greece #1) (nectarine trees; 200 ppm ACC): 37%
% Fruit Set (Spain South #2) (nectarine trees; 200 ppm ACC): 55%
% Fruit Set (Greece #1) (nectarine trees; 300 ppm ACC): 32%
% Fruit Set (Spain South #2) (nectarine trees; 300 ppm ACC): 55%
% Fruit Set (Greece #1) (nectarine trees; 400 ppm ACC): 28%
% Fruit Set (Spain South #2) (nectarine trees; 400 ppm ACC): 48%
% Fruit Set (Greece #1) (nectarine trees; 500 ppm ACC): 25%
% Fruit Set (Spain South #2) (nectarine trees; 500 ppm ACC): 45%
% Fruit Set (Greece #1) (nectarine trees; 800 ppm ACC): 19%
% Fruit Set (Spain South #2) (nectarine trees; 800 ppm ACC): 37%
% Fruit Set (Greece #1) (nectarine trees; 1,000 ppm ACC): 16%
% Fruit Set (Spain South #2) (nectarine trees; 1,000 ppm ACC): 37%
% Fruit Set (Italy) ([1]; 200 ppm ACC): 33%
% Fruit Set (Avg) ([1]; 200 ppm ACC): 44%
reduced fruit set on average over control ([1]; 200 ppm): 18%
% Fruit Set (Italy) ([1]; 300 ppm ACC): 32%
% Fruit Set (Avg) ([1]; 300 ppm ACC): 40%
reduced fruit set on average over control ([1]; 300 ppm): 30%
% Fruit Set (Italy) ([1]; 400 ppm ACC): 34%
% Fruit Set (Avg) ([1]; 400 ppm ACC): 35%
reduced fruit set on average over control ([1]; 400 ppm): 49%
% Fruit Set (Italy) ([1]; 500 ppm ACC): 32%
% Fruit Set (Avg) ([1]; 500 ppm ACC): 33%
reduced fruit set on average over control ([1]; 500 ppm): 58%
% Fruit Set (Italy) ([1]; 800 ppm ACC): 32%
% Fruit Set (Avg) ([1]; 800 ppm ACC): 25%
reduced fruit set on average over control ([1]; 800 ppm): 108%
% Fruit Set (Italy) ([1]; 1,000 ppm ACC): 31%
% Fruit Set (Avg) ([1]; 1,000 ppm ACC): 24%
reduced fruit set on average over control ([1]; 1,000 ppm): 117%
Foliage Rating (GlenGlo Peach trees [2]; 300 ppm ACC, After Petal Fall): 1.86
Foliage Rating (GlenGlo Peach trees [2]; 300 ppm ACC, Full Bloom): 2.10
Foliage Rating (GlenGlo Peach trees [2]; 300 ppm ACC, Pink Bud Stage): 1.52
Foliage Rating (GlenGlo Peach trees [2]; 600 ppm ACC, After Petal Fall): 1.90
Foliage Rating (GlenGlo Peach trees [2]; 600 ppm ACC, Full Bloom): 2.67
Foliage Rating (GlenGlo Peach trees [2]; 600 ppm ACC, Pink Bud Stage): 1.95
foliage quality (GlenGlo Peach trees [2]; application at the pink bud stage): did not significantly reduce foliage quality
% Fruit Set 'Black Majesty' ([3]; 300 ppm ACC, Full Bloom Stage): 9%
% Fruit set 'Candy Stripe' ([3]; 300 ppm ACC, Full Bloom Stage): 4%
% Fruit Set (Avg) ([3]; 300 ppm ACC, Full Bloom Stage): 6.5%
% Fruit Set 'Black Majesty' ([3]; 300 ppm ACC, Petal Fall Stage): 8%
% Fruit set 'Candy Stripe' ([3]; 300 ppm ACC, Petal Fall Stage): 5%
% Fruit Set (Avg) ([3]; 300 ppm ACC, Petal Fall Stage): 6.5%
% Fruit Set 'Black Majesty' ([3]; 300 ppm ACC, White Bud Stage): 4%
% Fruit set 'Candy Stripe' ([3]; 300 ppm ACC, White Bud Stage): 1%
% Fruit Set (Avg) ([3]; 300 ppm ACC, White Bud Stage): 2.5%
reduced fruit set on average over control ([3]; 300 ppm): 21.5%
% Fruit Set 'Black Majesty' ([3]; 450 ppm ACC, Full Bloom Stage): 9%
% Fruit set 'Candy Stripe' ([3]; 450 ppm ACC, Full Bloom Stage): 4%
% Fruit Set (Avg) ([3]; 450 ppm ACC, Full Bloom Stage): 6.5%
% Fruit Set 'Black Majesty' ([3]; 450 ppm ACC, Petal Fall Stage): 8%
% Fruit set 'Candy Stripe' ([3]; 450 ppm ACC, Petal Fall Stage): 3%
% Fruit Set (Avg) ([3]; 450 ppm ACC, Petal Fall Stage): 5.5%
% Fruit Set 'Black Majesty' ([3]; 450 ppm ACC, White Bud Stage): 5%
% Fruit set 'Candy Stripe' ([3]; 450 ppm ACC, White Bud Stage): 1%
% Fruit Set (Avg) ([3]; 450 ppm ACC, White Bud Stage): 3%
reduced fruit set on average over control ([3]; 450 ppm): 21%
% Fruit Set (Greece #2) (peach trees; 200 ppm ACC): 33%
% Fruit Set (Spain North) (peach trees; 200 ppm ACC): 50%
% Fruit Set (Spain South#1) (peach trees; 200 ppm ACC): 55%
% Fruit Set (Greece #2) (peach trees; 300 ppm ACC): 32%
% Fruit Set (Spain North) (peach trees; 300 ppm ACC): 44%
% Fruit Set (Spain South#1) (peach trees; 300 ppm ACC): 46%
% Fruit Set (Greece #2) (peach trees; 400 ppm ACC): 28%
% Fruit Set (Spain North) (peach trees; 400 ppm ACC): 33%
% Fruit Set (Spain South#1) (peach trees; 400 ppm ACC): 39%
% Fruit Set (Greece #2) (peach trees; 500 ppm ACC): 28%
% Fruit Set (Spain North) (peach trees; 500 ppm ACC): 25%
% Fruit Set (Spain South#1) (peach trees; 500 ppm ACC): 42%
% Fruit Set (Greece #2) (peach trees; 800 ppm ACC): 23%
% Fruit Set (Spain North) (peach trees; 800 ppm ACC): 7%
% Fruit Set (Spain South#1) (peach trees; 800 ppm ACC): 31%
% Fruit Set (Greece #2) (peach trees; 1,000 ppm ACC): 21%
% Fruit Set (Spain North) (peach trees; 1,000 ppm ACC): 7%
% Fruit Set (Spain South#1) (peach trees; 1,000 ppm ACC): 32%
% Fruit Set (GlenGlo Peach trees [4]; 300 ppm ACC foliar spray, After Petal Fall): 57%
% Fruit Set (GlenGlo Peach trees [4]; 300 ppm ACC foliar spray, Full Bloom): 10%
% Fruit Set (GlenGlo Peach trees [4]; 300 ppm ACC foliar spray, Pink Bud Stage): 10%
reduced fruit set over control (GlenGlo Peach trees [4]; 300 ppm): 310%
% Fruit Set (GlenGlo Peach trees [4]; 600 ppm ACC foliar spray, After Petal Fall): 45%
% Fruit Set (GlenGlo Peach trees [4]; 600 ppm ACC foliar spray, Full Bloom): 1%
% Fruit Set (GlenGlo Peach trees [4]; 600 ppm ACC foliar spray, Pink Bud Stage): 6%
reduced fruit set over control (GlenGlo Peach trees [4]; 600 ppm): 583%
thinning activity (GlenGlo Peach trees [4]; application after petal fall): did not provide effective thinning activity
